Results reported in patent US20250154546A1, “USE OF 3'-OXYMETHYLENE ALKYL DISULFIDE PROTECTED NUCLEOTIDES FOR ENZYMATIC DNA AND RNA SYNTHESIS” (Miltenyi Biotec B.V. & Co. KG, priority 2022, published 2025).

Assay: Cleave kinetics of 3′-O-capped nucleotide in cleave mix, monitored by UPLC
Type: physicochemical
Settings: 10 mM Mg2+ in the cleave mix versus none; 20 mM DMPS, pH 9.5
Procedure: A 3′-O-capped nucleotide was treated with a cleave mix DMPS/THPP and the concentration of the 3′-capped nucleotide was monitored by UPLC with a UV detector at a fixed time interval.
In [A]=−kt+In[A]0 and t1/2=In2/k with [A]: reactant concentration; k: reaction rate coefficient
Nucleotide: MeSSdATP, 4.7 mM in 1× TE buffer;
12.8 μL of nucleotide was added to 287 μL of cleave mix in a 1.5 mL of UPLC sample vial. The resulting mixture was analyzed by UPLC right away and every 10 min afterwards automatically for up to 120 min. The area of the starting nucleotide peak was measured at each time point and the value was used directly for the calculation. From the rate of peak area reduction or disappearance of the intermediate the rate constant and the half-life of the intermediate calculated as discussed earlier.

CSSCO[C@H]1C[C@H](n2cnc3c(N)ncnc32)O[C@@H]1COP(=O)(O)OP(=O)(O)OP(=O)(O)O [MeSSdATP, 3′-O—(MeSSCH2)-dATP] gave a reduction of half-life of at most 30%.
